In patent US20030166483A1, “Use of 3-iodine-2-propinyl-carbamates as antimicrobial active agent” (priority 2003, published 2003):

Legend:
Type in all cases: cell-based
[1] = system: dermatophytes, fungi producing mildew spots and material-damaging fungi; assay: Fungistatic activity, overall result; conditions: by comparison with the reference preparation
Method: (§1) 1×1 cm prewashed and autoclaved test specimens of standard cotton cloth to DIN 53919 (WfK-Testgewebe GmbH, Adlerstr. 42, Krefeld) were placed in the test solutions for 15 minutes, removed under sterile conditions and dried for 14 h at room temperature. 0.1 ml inoculation suspensions of the test fungi mentioned above were inoculated into malt agar in a petri dish and, after the agar had solidified, 0.1 ml was spread over the agar surface with a spatula.
(§2) The test specimens impregnated with the test solutions were then placed on the agar surface under sterile conditions and the dishes were incubated for 7 days at 25° C. The inhibiting effect was then evaluated to the following scheme: […]

[2] = system: Cladosporium cladosporioides, DSM 62121; assay: Fungicidal activity by the DGHM germ carrier test; design: key: +: living culture; −: dead culture
Method: (§3) Candida albicans, ATCC 10231 (precultured on CaSo agar, 4 d/25° C.), Aspergillus niger, ATCC 6275 (precultured on malt agar, 8d/25° C.), Trichophyton mentagrophytes, ATCC 9533 (precultured on malt agar, 8d/25° C.), Cladosporium cladosporioides, DSM 62121 (precultured on malt agar, 8d/25° C.), Epicoccum nigrum, self-isolate (precultured on malt agar, 8d/25°).
(§4) The inocula were obtained by floating off the preculture plates with 0.05% Tween®80 and had the following germ contents:
(§5) The test was carried out under the Richtlinien für die Prüfung und Bewertung chemischer Desinfektionsverfahren (Guidelines for the Testing and Evaluation of Chemical Disinfection Processes) of the Deutsche Gesellschaft für Hygiene und Mikrobiologie (DGHM), Gustav Fischer Verlag, 1981:
(§6) 16 prewashed and autoclaved test specimens were placed in the above-mentioned inoculation suspensions of the test fungi and left therein for 15 minutes during which they were turned over several times. The test specimens thus contaminated were then transferred to empty Petri dishes where 10 ml of the test solutions were poured over them. After contact times of 60 and 120 minutes at 20° C., two of the test specimens were removed, briefly transferred to 10 ml of DGHM inactivator solution and then inoculated onto CaSo plates (Candida) or malt agar plates (other test fungi). Incubation lasted 7 days at 25° C. and was followed by qualitative evaluation, i.e. growth yes (+) or no (−).

[3] = system: Epicoccum nigrum, self-isolate; assay: Fungicidal activity by the DGHM germ carrier test; design: key: +: living culture; −: dead culture
Method: as §3, §4, §5, §6

[4] = system: Trichophyton mentagrophytes, ATCC 9533; assay: Fungicidal activity by the DGHM germ carrier test; design: key: +: living culture; −: dead culture
Method: as §3, §4, §5, §6

[5] = system: Candida albicans, ATCC 10231; assay: Fungicidal activity by the DGHM germ carrier test; design: key: +: living culture; −: dead culture
Method: as §3, §4, §5, §6

[6] = system: Aspergillus niger, ATCC 6275; assay: Fungicidal activity by the DGHM germ carrier test; design: key: +: living culture; −: dead culture
Method: as §3, §4, §5, §6

[7] = system: Cladosporium cladosporioides, DSM 62121; assay: Fungistatic activity by the inhibition test; conditions: 7 days at 25° C.; for inhibiting effect evaluation: impregnated cotton specimens
Method: as §3, §4, §1, §2

[8] = system: Epicoccum nigrum, self-isolate; assay: Fungistatic activity by the inhibition test; conditions: 7 days at 25° C.; for inhibiting effect evaluation: impregnated cotton specimens
Method: as §3, §4, §1, §2

[9] = system: Trichophyton mentagrophytes, ATCC 9533; assay: Fungistatic activity by the inhibition test; conditions: 7 days at 25° C.; for inhibiting effect evaluation: impregnated cotton specimens
Method: as §3, §4, §1, §2

[10] = system: Candida albicans, ATCC 10231; assay: Fungistatic activity by the inhibition test; conditions: 7 days at 25° C.; for inhibiting effect evaluation: impregnated cotton specimens
Method: as §3, §4, §1, §2

[11] = system: Aspergillus niger, ATCC 6275; assay: Fungistatic activity by the inhibition test; conditions: 7 days at 25° C.; for inhibiting effect evaluation: impregnated cotton specimens
Method: as §3, §4, §1, §2

[12] = 100 ppm, contact time 60 mins. at 20° C.
[13] = 100 ppm, contact time 120 mins. at 20° C.
[14] = 500 ppm, contact time 60 mins. at 20° C.
[15] = 500 ppm, contact time 120 mins. at 20° C.
[16] = 750 ppm, contact time 60 mins. at 20° C.
[17] = 750 ppm, contact time 120 mins. at 20° C.

Q: With CCCCNC(=O)OCC#CI [IPBC, 3-Iodo-2-propinyl butyl carbamate] as the compound, how does the “fungistatic activity (overall)” value [1] read?
A: Its value is “very good fungistatic activity”.

Q: And the “growth after contact (fungicidal activity)” value (shortened to “growth after contact”) [2, 12]?
A: The value was 60 mins. +.

Q: And the “growth after contact” value [2, 13]?
A: Its value is 120 mins. +.

Q: What about the “growth after contact” value [2, 14] of the same compound?
A: The value was 60 mins. −.

Q: And the “growth after contact” value [2, 15]?
A: The value was 120 mins. −.

Q: And the “growth after contact” value [2, 16]?
A: The value was 60 mins. −.

Q: What about the “growth after contact” value [2, 17] of the same compound?
A: Its value is 120 mins. −.

Q: What about the “growth after contact” value [3, 12] of the same compound?
A: Its value is 60 mins. +.

Q: What about the “growth after contact” value [3, 13] of the same compound?
A: Its value is 120 mins. +.

Q: What about the “growth after contact” value [3, 14] of the same compound?
A: The value was 60 mins. −.

Q: What about the “growth after contact” value [3, 15] of the same compound?
A: Its value is 120 mins. −.

Q: What about the “growth after contact” value [3, 16] of the same compound?
A: Its value is 60 mins. −.

Q: And the “growth after contact” value [3, 17]?
A: The value was 120 mins. −.

Q: And the “growth after contact” value [4, 12]?
A: The value was 60 mins. +.

Q: What about the “growth after contact” value [4, 13] of the same compound?
A: Its value is 120 mins. +.

Q: What about the “growth after contact” value [4, 14] of the same compound?
A: The value was 60 mins. −.

Q: What about the “growth after contact” value [4, 15] of the same compound?
A: Its value is 120 mins. −.

Q: What about the “growth after contact” value [4, 16] of the same compound?
A: Its value is 60 mins. −.

Q: What about the “growth after contact” value [4, 17] of the same compound?
A: The value was 120 mins. −.

Q: What about the “growth after contact” value [5, 12] of the same compound?
A: Its value is 60 mins. +.

Q: What about the “growth after contact” value [5, 13] of the same compound?
A: The value was 120 mins. +.

Q: What about the “growth after contact” value [5, 14] of the same compound?
A: The value was 60 mins. +.

Q: And the “growth after contact” value [5, 15]?
A: Its value is 120 mins. +.

Q: And the “growth after contact” value [5, 16]?
A: Its value is 60 mins. +.

Q: And the “growth after contact” value [5, 17]?
A: Its value is 120 mins. +.

Q: What about the “growth after contact” value [6, 12] of the same compound?
A: The value was 60 mins. +.

Q: What about the “growth after contact” value [6, 13] of the same compound?
A: The value was 120 mins. +.

Q: And the “growth after contact” value [6, 14]?
A: Its value is 60 mins. +.

Q: And the “growth after contact” value [6, 15]?
A: The value was 120 mins. +.

Q: What about the “growth after contact” value [6, 16] of the same compound?
A: Its value is 60 mins. +.

Q: And the “growth after contact” value [6, 17]?
A: Its value is 120 mins. +.

Q: What about the inhibition zone ([7]; 100 ppm test solution) of the same compound?
A: The inhibition zone was 1 mm.

Q: And the inhibiting effect evaluation ([7]; 100 ppm test solution)?
A: Its inhibiting effect evaluation is 0/0.

Q: What about the inhibition zone ([7]; 500 ppm test solution) of the same compound?
A: Its inhibition zone is 5-7 mm.

Q: And the inhibiting effect evaluation ([7]; 500 ppm test solution)?
A: The inhibiting effect evaluation was 0/0.

Q: And the inhibition zone ([7]; 750 ppm test solution)?
A: The inhibition zone was 5-7 mm.

Q: And the inhibiting effect evaluation ([7]; 750 ppm test solution)?
A: Its inhibiting effect evaluation is 0/0.

Q: What about the inhibition zone ([8]; 100 ppm test solution) of the same compound?
A: Its inhibition zone is 5-9 mm.

Q: What about the inhibiting effect evaluation ([8]; 100 ppm test solution) of the same compound?
A: The inhibiting effect evaluation was 0/0.

Q: And the inhibition zone ([8]; 500 ppm test solution)?
A: Its inhibition zone is 11-14 mm.

Q: And the inhibiting effect evaluation ([8]; 500 ppm test solution)?
A: The inhibiting effect evaluation was 0/0.

Q: And the inhibition zone ([8]; 750 ppm test solution)?
A: Its inhibition zone is 12-15 mm.

Q: What about the inhibiting effect evaluation ([8]; 750 ppm test solution) of the same compound?
A: The inhibiting effect evaluation was 0/0.

Q: And the inhibition zone ([9]; 100 ppm test solution)?
A: Its inhibition zone is 3-6 mm.

Q: And the inhibiting effect evaluation ([9]; 100 ppm test solution)?
A: The inhibiting effect evaluation was 0/0.

Q: What about the inhibition zone ([9]; 500 ppm test solution) of the same compound?
A: Its inhibition zone is 12-15 mm.

Q: And the inhibiting effect evaluation ([9]; 500 ppm test solution)?
A: Its inhibiting effect evaluation is 0/0.

Q: What about the inhibition zone ([9]; 750 ppm test solution) of the same compound?
A: Its inhibition zone is 15-18 mm.

Q: And the inhibiting effect evaluation ([9]; 750 ppm test solution)?
A: The inhibiting effect evaluation was 0/0.

Q: And the inhibiting effect evaluation ([10]; 100 ppm test solution)?
A: Its inhibiting effect evaluation is 1/1.

Q: And the inhibition zone ([10]; 500 ppm test solution)?
A: Its inhibition zone is 3-5 mm.

Q: What about the inhibiting effect evaluation ([10]; 500 ppm test solution) of the same compound?
A: The inhibiting effect evaluation was 0/0.

Q: And the inhibition zone ([10]; 750 ppm test solution)?
A: The inhibition zone was 3-5 mm.

Q: What about the inhibiting effect evaluation ([10]; 750 ppm test solution) of the same compound?
A: Its inhibiting effect evaluation is 0/0.

Q: And the inhibition zone ([11]; 100 ppm test solution)?
A: Its inhibition zone is 3-5 mm.

Q: What about the inhibiting effect evaluation ([11]; 100 ppm test solution) of the same compound?
A: The inhibiting effect evaluation was 0/0.

Q: What about the inhibition zone ([11]; 500 ppm test solution) of the same compound?
A: Its inhibition zone is 9-11 mm.

Q: And the inhibiting effect evaluation ([11]; 500 ppm test solution)?
A: Its inhibiting effect evaluation is 0/0.

Q: What about the inhibition zone ([11]; 750 ppm test solution) of the same compound?
A: Its inhibition zone is 10-12 mm.

Q: And the inhibiting effect evaluation ([11]; 750 ppm test solution)?
A: The inhibiting effect evaluation was 0/0.
